Measured values taken from patent US7045305B1, “Methods and reagents for targeting organic compounds to selected cellular locations” (The Regents of the University of California, priority 1998, dated 2006).

Key:
vacuolar H+ pump = assay: Golgi lumenal pH time course with Golgi-targeted phOx-fluorescein; format: cell-based; settings: 100 nM, Golgi pH initially ~6.3, individual cells
Protocol: Cells were labeled at two days after transfection, with phOx-fluorophore conjugates by incubation with low concentrations (<100 nM) of the conjugates. […] Images were recorded at room temperature on a K2 BIO microscope (Technical Instruments) equipped with a 60× PlanApo objective (Nikon, N. A. 1.4), coaxial-confocal attachment, and cooled CCD camera (Photometrics). Dual-excitation ratio images of fluorescein were acquired using 440 and 490 nm excitation filters and a 520 nm long pass emission filter (Chroma). Continuous recordings of the fluorescence time course were obtained on a Nikon Diaphot epifluorescence microscope equipped with a 100× PlanApo objective (Nikon, N. A. 1.4), a photomultiplier using a 530 nm bandpass emission filter and an optical filter changer (Model 10-C, Sutter Instrument Co.) containing 440 and 490 nm excitation filters. Cuvette fluorescence measurements were conducted on an SLM 8000c fluorometer (SLM Aminco). Spectra were recorded with 4 nm slit widths; time courses were acquired with 495 nm excitation and a […] longpass emission filter.
Organelle-specific sFv targeting was applied to measure Golgi pH using phOx-fluorescein as the probe. […] The dependence of the fluorescence ratio on pH was measured for Golgi and plasma membrane-expressed sFv (FIG. 4A). […]

[1] = tested on: CHO cells expressing targeted sFv; assay: Site-specific fluorescent labeling of living CHO cells expressing targeted sFv; format: cell-based; settings: addition of 1 μM
Protocol: CHO cells (ATCC CRL 9618) were transfected with plasmids encoding targeted sFv using lipofectamine (Gibco) as is known in the art.
Cells were labeled at two days after transfection, with phOx-fluorophore conjugates by incubation with low concentrations (<100 nM) of the conjugates. […] Images were recorded at room temperature on a K2 BIO microscope (Technical Instruments) equipped with a 60× PlanApo objective (Nikon, N. A. 1.4), coaxial-confocal attachment, and cooled CCD camera (Photometrics). Dual-excitation ratio images of fluorescein were acquired using 440 and 490 nm excitation filters and a 520 nm long pass emission filter (Chroma). Continuous recordings of the fluorescence time course were obtained on a Nikon Diaphot epifluorescence microscope equipped with a 100× PlanApo objective (Nikon, N. A. 1.4), a photomultiplier using a 530 nm bandpass emission filter and an optical filter changer (Model 10-C, Sutter Instrument Co.) containing 440 and 490 nm excitation filters. Cuvette fluorescence measurements were conducted on an SLM 8000c fluorometer (SLM Aminco). Spectra were recorded with 4 nm slit widths; time courses were acquired with 495 nm excitation and a 510 mm longpass emission filter.
The various sFv targeting constructs and phOx conjugates were studied in CHO cells. […] For quantitative measurement of organelle pH, the free dye was washed out of the bathing solutions.

SMILES	change of Golgi pH after addition (vacuolar H+ pump)	effect on phOx-Bodipy staining of Golgi (competition) [1]
CO/C1=C\C(C)=C\[C@@H](C)[C@@H](O)[C@@H](C)C/C(C)=C/C=C/[C@H](OC)[C@@H]([C@@H](C)[C@@H](O)[C@H](C)[C@@]2(O)C[C@@H](O)[C@H](C)[C@@H](C(C)C)O2)OC1=O [bafilomycin A1]	promptly alkalinized	–
O=C1OC(c2ccccc2)=NC1=CNCCO [phOx-ethanolamine]	–	reversed
